Values of other authors, collected in US10179134B2, “Polymeric nanoparticles in a thermosensitive gel for coital-independent vaginal prophylaxis of HIV” (Creighton University, priority 2012, dated 2019).

Test system: HeLa cells

O=C1Nc2ccc(Cl)cc2[C@@](C#CC2CC2)(C(F)(F)F)O1 [efavirenz]
concentration above which toxic to the HeLa cells: higher than 25 μM
